Source: ChEMBL document CHEMBL1201862, “PubChem BioAssay data set” (2004)
Active and inactive are the calls of the source.

Tests used:
[1] = luciferase reporter signal suppression in cells – H4 neuroglioma cells, luminescence, dose response (AID 1990); type: functional, cell-based
[2] = Luminescence Cell-Based Dose Response HTS to Identify Inhibitors of 5'UTR Stem-Loop Driven Prion Protein mRNA Translation in H4 Neuroglioblastoma Cells. [Related pubchem assays: 1827 (Project Summary), 1813 (Primary HTS)]; type: functional
[3] = alpha-synuclein stem-loop luciferase translation blockers – H4 neuroglioma cells, luminescence, confirmation (AID 1988); type: functional, cell-based
[4] = target: T1, Rac GTPase-activating protein 1 (Homo sapiens, UniProt Q9H0H5); assay: blockers of MgcRacGAP-driven Rac1 GTP hydrolysis – biochemical, ADP Hunter fluorescence, primary and confirmatory, confirmation (AID 624330); type: functional
T1 sequence (Q9H0H5 whole entry): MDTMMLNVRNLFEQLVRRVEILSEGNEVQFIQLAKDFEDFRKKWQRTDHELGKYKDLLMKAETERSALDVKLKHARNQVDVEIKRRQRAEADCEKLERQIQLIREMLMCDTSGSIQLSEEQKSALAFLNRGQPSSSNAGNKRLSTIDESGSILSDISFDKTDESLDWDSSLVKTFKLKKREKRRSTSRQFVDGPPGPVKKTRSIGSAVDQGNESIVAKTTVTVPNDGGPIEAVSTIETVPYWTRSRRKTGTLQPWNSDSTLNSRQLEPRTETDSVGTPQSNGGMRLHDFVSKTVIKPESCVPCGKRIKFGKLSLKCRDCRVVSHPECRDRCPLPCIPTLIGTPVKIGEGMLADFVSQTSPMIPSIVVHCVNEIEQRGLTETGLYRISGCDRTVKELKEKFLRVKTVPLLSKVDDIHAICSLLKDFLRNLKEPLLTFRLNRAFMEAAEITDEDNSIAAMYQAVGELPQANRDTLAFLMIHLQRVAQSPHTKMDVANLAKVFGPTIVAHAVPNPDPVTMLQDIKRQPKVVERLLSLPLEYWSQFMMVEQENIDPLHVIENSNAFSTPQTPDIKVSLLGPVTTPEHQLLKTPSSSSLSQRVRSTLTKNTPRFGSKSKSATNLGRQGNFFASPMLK

[5] = Luminescence Cell-Based Dose Retest to Confirm Inhibitors of Cancer Stem Cells. [Related pubchem assays (depositor defined):AID2717, AID2721]; type: functional; details: Homo sapiens
Paired box protein Pax-8 = Paired box protein Pax-8 (Homo sapiens, UniProt Q06710); assay: PAX8 transcriptional activity inhibition in RMG-I – RMG-I cells, luciferase, cherry-pick, dose response (AID 687027); type: functional, cell-based;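 also: luciferase reporter driven by Pax8 target thyroperoxidase promoter measured by SteadyGlo luminescence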
[6] = tested on: Streptococcus sp. 'group A'; assay: Streptococcus pyogenes SK(-)GAS viability under kanamycin – luminescence, BacTiterGlo, confirmation, counter-screen for streptokinase expression inhibitor project, dose response (AID 1900); type: functional, organism-based
Streptokinase A = target: T2, Streptokinase A (Streptococcus pyogenes serotype M1, UniProt P10520); assay: viability-normalized secreted streptokinase activity reduction – plasminogen activation absorbance, OD405, dose response (AID 1914); type: functional, Streptococcus pyogenes M1 GAS;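 also: secreted streptokinase activity via plasminogen activation per viability signal from cell pellet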
T2 sequence (P10520 whole entry): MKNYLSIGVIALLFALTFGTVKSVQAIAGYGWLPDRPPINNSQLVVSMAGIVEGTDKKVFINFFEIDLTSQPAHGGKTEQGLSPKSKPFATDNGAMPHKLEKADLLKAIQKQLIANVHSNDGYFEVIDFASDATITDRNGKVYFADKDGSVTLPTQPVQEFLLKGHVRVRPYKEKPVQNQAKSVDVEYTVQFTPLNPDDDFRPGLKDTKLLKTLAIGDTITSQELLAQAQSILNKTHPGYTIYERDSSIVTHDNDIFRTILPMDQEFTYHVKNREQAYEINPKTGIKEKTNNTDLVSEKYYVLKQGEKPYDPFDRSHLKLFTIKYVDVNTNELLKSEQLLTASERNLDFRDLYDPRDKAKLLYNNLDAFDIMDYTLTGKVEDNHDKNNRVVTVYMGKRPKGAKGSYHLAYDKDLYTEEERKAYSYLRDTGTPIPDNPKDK

Streptococcus = assay: GAS UMAA2166 growth inhibition – luminescence, BacTiterGlo, counter-screen for streptokinase expression inhibitor project, dose response (AID 1915); type: functional, organism-based;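 also: potency for reduction of bacterial viability or growth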
[7] = viability of uninfected HEp-2 cells – cell-based, HTS, cytotoxicity control for RSV inhibitor project, dose response (AID 2410); type: functional; details: human respiratory syncytial virus
Cytochrome P450 2C19 = Cytochrome P450 2C19 (Homo sapiens, UniProt P33261); assay: Cytochrome panel assay with activity outcomes. Panel member name: p450-cyp2c19 Compounds with AC50 equal or less than 10 uM are considered active; type: functional
Cytochrome P450 2C9 = Cytochrome P450 2C9 (Homo sapiens, UniProt P11712)
[8] = NIH-3T3 fibroblast cytotoxicity, dose response, cytotoxicity control, cell-based, fluorescence, Alamar Blue, secondary assay (AID 2327); type: functional;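 also: NIH-3T3 mouse fibroblasts cultured with fluconazole at 8 µg/mL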
INS1 = assay: INS-1E survival protection against cytokine death – cell-based, luminescence, retest, dose response (AID 449756); type: functional; details: Rattus norvegicus;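 also: cell death triggered by IL-1 beta plus TNF-alpha plus IFN-gamma mixture; protective hits raise ATP signal compared with cytokine alone wells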
[9] = Trypanosoma cruzi growth suppression in host cells – NIH3T3 host cells, beta-gal luminescence, confirmation (AID 2044); type: functional, cell-based;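 also: intracellular parasites grown in NIH/3T3 mouse fibroblasts as host cells; luminescent beta-galactosidase reporter signal from transgenic T. cruzi replicating inside host cells; inhibitors lower the luminescence signal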
[10] = NIH3T3 cell viability loss – ATP luminescence, mouse fibroblasts, counter-screen, dose response (AID 2010); type: functional, cell-based;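 also: cells exposed to compound for about 90 hours before reading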

Sequence of Paired box protein Pax-8 (Q06710 whole entry): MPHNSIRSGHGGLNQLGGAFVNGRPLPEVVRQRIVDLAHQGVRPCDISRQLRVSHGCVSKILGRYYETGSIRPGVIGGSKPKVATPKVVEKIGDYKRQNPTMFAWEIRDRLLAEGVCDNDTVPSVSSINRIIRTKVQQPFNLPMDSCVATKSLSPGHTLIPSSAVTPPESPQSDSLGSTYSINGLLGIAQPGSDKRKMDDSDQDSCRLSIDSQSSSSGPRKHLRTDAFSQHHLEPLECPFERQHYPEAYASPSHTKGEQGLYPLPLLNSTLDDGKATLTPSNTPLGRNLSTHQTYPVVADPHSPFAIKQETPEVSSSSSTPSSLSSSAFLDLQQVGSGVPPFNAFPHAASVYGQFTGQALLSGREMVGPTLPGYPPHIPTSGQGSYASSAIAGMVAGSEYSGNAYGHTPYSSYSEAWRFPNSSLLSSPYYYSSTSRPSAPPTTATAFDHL
Sequence of Cytochrome P450 2C9 (P11712 whole entry): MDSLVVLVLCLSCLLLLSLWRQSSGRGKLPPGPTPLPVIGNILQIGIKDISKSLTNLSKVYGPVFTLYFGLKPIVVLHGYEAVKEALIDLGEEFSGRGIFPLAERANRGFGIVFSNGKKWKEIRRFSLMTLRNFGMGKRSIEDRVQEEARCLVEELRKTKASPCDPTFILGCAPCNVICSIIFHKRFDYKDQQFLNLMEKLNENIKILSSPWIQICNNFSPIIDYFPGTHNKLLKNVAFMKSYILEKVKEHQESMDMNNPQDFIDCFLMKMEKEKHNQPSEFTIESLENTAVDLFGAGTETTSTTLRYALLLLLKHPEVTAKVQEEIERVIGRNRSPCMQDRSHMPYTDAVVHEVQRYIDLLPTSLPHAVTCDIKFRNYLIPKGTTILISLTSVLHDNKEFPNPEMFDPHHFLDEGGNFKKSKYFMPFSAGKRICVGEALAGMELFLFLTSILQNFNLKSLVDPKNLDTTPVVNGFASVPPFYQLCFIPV
Sequence of Cytochrome P450 2C19 (P33261 whole entry): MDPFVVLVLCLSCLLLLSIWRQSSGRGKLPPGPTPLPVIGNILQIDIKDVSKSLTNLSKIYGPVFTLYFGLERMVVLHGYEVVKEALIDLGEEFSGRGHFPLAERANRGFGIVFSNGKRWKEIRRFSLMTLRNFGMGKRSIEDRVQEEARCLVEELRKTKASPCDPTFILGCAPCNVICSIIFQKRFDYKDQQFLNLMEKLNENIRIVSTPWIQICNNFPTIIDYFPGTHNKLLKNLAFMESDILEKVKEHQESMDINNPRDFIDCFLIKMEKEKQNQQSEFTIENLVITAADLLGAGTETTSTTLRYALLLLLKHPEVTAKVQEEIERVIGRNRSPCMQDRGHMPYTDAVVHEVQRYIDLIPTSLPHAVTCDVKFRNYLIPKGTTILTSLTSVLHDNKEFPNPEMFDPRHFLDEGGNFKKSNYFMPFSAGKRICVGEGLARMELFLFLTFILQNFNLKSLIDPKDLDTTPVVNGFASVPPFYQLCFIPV

SMILES: COc1ccccc1N1CCN(S(=O)(=O)CCNC(=O)c2cc(OC)c(OC)c(OC)c2)CC1
- EC50 [1]: > 120 µM (not active)
- EC50 [2]: > 120 µM (not active)
- EC50 [3]: 10.6 µM (active)

SMILES: COc1cc2cc(-c3ccc(O)cc3O)nc(C)c2cc1OC
- IC50 [4]: 29.9 µM (active)

SMILES: C=CC[n+]1c(/C=C/c2ccc(OC(C)=O)c(OC)c2)ccc2ccccc21
- IC50 [4]: 61.2 µM (active)

SMILES: CCC1CSC(Nc2ccc(C(=O)/C=C/c3ccc(Br)cc3)cc2)=N1 (stereo not given)
- AC50 [5]: 2 µM (active)

SMILES: CN(C)N1C(N)=C(C#N)C(c2cccc3ccccc23)C2=C1CC(c1ccccc1)CC2=O (stereo not given)
- AC50 [5]: 1.15 µM (active)

SMILES: CN(C)S(=O)(=O)c1ccc(N2C(=O)CC2(/C=C/c2ccccc2)C(=O)NC2CCCC2)cc1 (stereo not given)
- EC50 [1]: > 120 µM (not active)
- EC50 [2]: > 120 µM (not active)
- EC50 [3]: > 120 µM (not active)

SMILES: C[C@@H]1CN([C@H](C)CO)C(=O)c2cc(NC(=O)Nc3ccc(F)cc3)ccc2O[C@@H](C)CCCCO[C@H]1CN(C)C(=O)Nc1ccc(F)cc1
- AC50 (Paired box protein Pax-8): 10.8 µM (active)

SMILES: Nc1nn2c(O)c3c(nc2c1N=Nc1ccc(Cl)cc1)CCCC3
- EC50 [6]: 6.99 µM (active)
- EC50 (Streptokinase A): > 150 µM (not active)
- EC50 (Streptococcus): > 150 µM (not active)

SMILES: COc1ccc(/C=C/c2nc3cc(-c4ccccc4)ccc3o2)cc1O
- CC50 [7]: 36.3 µM (active)
- AC50 [5]: 4.06 µM (active)

SMILES: Cc1cccc(C(=O)NN(C)c2nc(-c3ccccc3)nnc2C(F)(F)F)c1
- AC50 (Cytochrome P450 2C19; read-out: AC50): 0.708 µM (inconclusive)
- AC50 (Cytochrome P450 2C9): 0.316 µM (inconclusive)

SMILES: CCN1CCN(C(=O)c2ccc(CSc3ccc(C)cc3)cc2)CC1
- EC50 [8]: > 150 µM (inactive)
- AC50 [5]: < 0.16 µM (active)

SMILES: C[C@@H]1CN([C@H](C)CO)C(=O)c2c(c3ccccc3n2C)-c2ccccc2CO[C@@H]1CN(C)C
- AC50 (Paired box protein Pax-8): 66.1 µM (active)

SMILES: O=C(NC1CC1)c1ccc(-c2nc3ccccc3s2)s1
- EC50 [1]: 4.13 µM (active)
- EC50 [2]: 7.52 µM (active)
- EC50 [3]: 13.6 µM (inconclusive)

SMILES: CN(C)S(=O)(=O)c1cccc(NC2=NN=C(c3ccccc3)CS2)c1
- AC50 (INS1): 7.27 µM (active)

SMILES: CNc1oc(-c2ccc(Cl)cc2)nc1P(=O)(c1ccccc1)c1ccccc1
- AC50 [5]: 7.13 µM (active)

SMILES: O=C(COCc1cc(-c2ccc3c(c2)OCO3)on1)N1CCN(c2cccc(C(F)(F)F)c2)CC1
- AC50 [5]: 1.51 µM (active)

SMILES: C/C(=C\C(=O)c1ccccc1)Nc1ccc(O)cc1
- IC50 [4]: 20.2 µM (active)

SMILES: Cc1cccc(NC(=O)c2ccccc2OCC(=O)c2ccc(F)cc2)c1
- EC50 [1]: > 120 µM (not active)
- EC50 [2]: > 120 µM (not active)
- EC50 [3]: > 120 µM (not active)

SMILES: COC(=O)C1=C(CSc2nc3ccccc3o2)NC(=O)NC1c1cc(C)ccc1C (stereo not given)
- EC50 [1]: > 120 µM (not active)
- EC50 [2]: > 120 µM (not active)
- EC50 [3]: > 120 µM (not active)

SMILES: C[C@@H]1CN([C@@H](C)CO)C(=O)c2cc(NC(=O)NC3CCCCC3)ccc2O[C@@H](C)CCCCO[C@H]1CN(C)Cc1ccc(C(F)(F)F)cc1
- AC50 (Paired box protein Pax-8): 11.5 µM (active)

SMILES: CN(Cc1c(F)cccc1Cl)C(=O)c1cc2ccccc2o1
- AC50 (INS1): > 260 µM (inactive)

SMILES: CCCCN1C(=O)C(NC(=O)c2cccnc2)(C(F)(F)F)C2=C1CC(C)(C)CC2=O (stereo not given)
- AC50 (Cytochrome P450 2C19): inconclusive
- AC50 (Cytochrome P450 2C9): 35.5 µM (inconclusive)

SMILES: COc1ccc(NC(=O)c2cc3ccc(O)cc3o/c2=N\O)cc1
- AC50 [5]: 5.22 µM (active)
- IC50 [4]: 42 µM (active)

SMILES: Cc1c(C(=O)NCc2ccc3c(c2)OCO3)oc2ccc(S(=O)(=O)N3CCCCCC3)cc12
- EC50 [1]: 14.9 µM (active)
- EC50 [2]: 15 µM (active)
- EC50 [3]: 25.5 µM (active)
- EC50 [9]: 0.775 µM (active)
- EC50 [10]: > 60 µM (not active)
